In ChEMBL document CHEMBL4507257, “Data for DCP probe ABT-100” (2021):

How the values were obtained:
[1] = test system: Phosphatidylinositol 4,5-bisphosphate 3-kinase catalytic subunit alpha isoform (Homo sapiens), P42336 [H1047Y]; details: Compound concentration 1000.0 nM
[2] = target: T1, Muscarinic acetylcholine receptor M4 (Homo sapiens) (UniProt P08173); details: Compound concentration 10.0 uM
T1 sequence (whole entry): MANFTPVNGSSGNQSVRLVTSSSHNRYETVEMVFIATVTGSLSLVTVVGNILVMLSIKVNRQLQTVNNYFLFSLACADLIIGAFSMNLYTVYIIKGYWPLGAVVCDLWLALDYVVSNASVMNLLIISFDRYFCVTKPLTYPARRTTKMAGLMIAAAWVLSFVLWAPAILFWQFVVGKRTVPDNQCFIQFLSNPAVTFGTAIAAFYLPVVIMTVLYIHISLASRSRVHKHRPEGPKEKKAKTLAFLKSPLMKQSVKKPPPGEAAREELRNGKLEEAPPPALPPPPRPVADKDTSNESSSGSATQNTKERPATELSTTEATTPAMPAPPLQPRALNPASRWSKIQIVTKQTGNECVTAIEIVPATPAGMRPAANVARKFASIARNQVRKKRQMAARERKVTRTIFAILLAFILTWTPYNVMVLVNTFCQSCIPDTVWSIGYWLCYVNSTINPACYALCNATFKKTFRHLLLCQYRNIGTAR

[3] = target: Phosphorylase b kinase gamma catalytic chain, skeletal muscle/heart isoform (Homo sapiens) (UniProt Q16816); details: Compound concentration 1000.0 nM
Sequence of Phosphorylase b kinase gamma catalytic chain, skeletal muscle/heart isoform (Homo sapiens) (Q16816 whole entry, looked up, canonical isoform): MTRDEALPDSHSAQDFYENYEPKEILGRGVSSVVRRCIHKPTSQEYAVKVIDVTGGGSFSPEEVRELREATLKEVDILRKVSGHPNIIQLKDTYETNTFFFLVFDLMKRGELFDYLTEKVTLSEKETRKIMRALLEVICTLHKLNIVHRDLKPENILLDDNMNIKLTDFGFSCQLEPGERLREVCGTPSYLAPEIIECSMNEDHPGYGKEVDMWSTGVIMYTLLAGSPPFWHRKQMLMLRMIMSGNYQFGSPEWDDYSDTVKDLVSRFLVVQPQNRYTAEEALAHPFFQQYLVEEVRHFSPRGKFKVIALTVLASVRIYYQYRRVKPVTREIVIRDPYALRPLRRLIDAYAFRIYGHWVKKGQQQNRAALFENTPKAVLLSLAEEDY

[4] = target: Phosphatidylinositol 4-kinase beta (Homo sapiens) (UniProt Q9UBF8); details: Compound concentration 1000.0 nM
Sequence of Phosphatidylinositol 4-kinase beta (Homo sapiens) (Q9UBF8 2-816 limits assumed): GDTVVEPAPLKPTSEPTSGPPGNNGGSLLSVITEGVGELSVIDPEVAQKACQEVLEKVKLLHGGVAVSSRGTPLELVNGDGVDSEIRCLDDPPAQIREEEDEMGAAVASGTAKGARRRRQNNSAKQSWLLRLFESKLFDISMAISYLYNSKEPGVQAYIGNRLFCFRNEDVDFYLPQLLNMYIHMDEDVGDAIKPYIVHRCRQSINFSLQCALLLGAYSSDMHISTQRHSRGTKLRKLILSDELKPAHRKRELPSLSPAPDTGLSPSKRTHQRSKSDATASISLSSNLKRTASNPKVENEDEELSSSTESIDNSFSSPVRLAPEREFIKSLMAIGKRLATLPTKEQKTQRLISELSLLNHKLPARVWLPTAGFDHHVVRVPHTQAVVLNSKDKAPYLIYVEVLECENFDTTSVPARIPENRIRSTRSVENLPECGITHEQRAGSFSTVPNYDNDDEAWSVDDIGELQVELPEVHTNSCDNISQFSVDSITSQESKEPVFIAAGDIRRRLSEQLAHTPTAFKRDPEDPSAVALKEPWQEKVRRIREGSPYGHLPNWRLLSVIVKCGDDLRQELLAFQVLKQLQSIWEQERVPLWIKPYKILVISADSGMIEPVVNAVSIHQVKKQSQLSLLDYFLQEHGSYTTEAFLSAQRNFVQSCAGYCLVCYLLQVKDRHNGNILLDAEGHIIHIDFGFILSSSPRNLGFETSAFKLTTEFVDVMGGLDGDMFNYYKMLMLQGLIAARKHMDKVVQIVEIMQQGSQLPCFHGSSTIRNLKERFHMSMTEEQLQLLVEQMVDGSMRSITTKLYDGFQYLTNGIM

[5] = target: Inhibitor of nuclear factor kappa-B kinase subunit beta (Homo sapiens) (UniProt O14920); details: Compound concentration 1000.0 nM
[6] = target: Mitogen-activated protein kinase kinase kinase 10 (Homo sapiens) (UniProt Q02779); details: Compound concentration 1000.0 nM
Sequence of Mitogen-activated protein kinase kinase kinase 10 (Homo sapiens) (Q02779 whole entry, looked up): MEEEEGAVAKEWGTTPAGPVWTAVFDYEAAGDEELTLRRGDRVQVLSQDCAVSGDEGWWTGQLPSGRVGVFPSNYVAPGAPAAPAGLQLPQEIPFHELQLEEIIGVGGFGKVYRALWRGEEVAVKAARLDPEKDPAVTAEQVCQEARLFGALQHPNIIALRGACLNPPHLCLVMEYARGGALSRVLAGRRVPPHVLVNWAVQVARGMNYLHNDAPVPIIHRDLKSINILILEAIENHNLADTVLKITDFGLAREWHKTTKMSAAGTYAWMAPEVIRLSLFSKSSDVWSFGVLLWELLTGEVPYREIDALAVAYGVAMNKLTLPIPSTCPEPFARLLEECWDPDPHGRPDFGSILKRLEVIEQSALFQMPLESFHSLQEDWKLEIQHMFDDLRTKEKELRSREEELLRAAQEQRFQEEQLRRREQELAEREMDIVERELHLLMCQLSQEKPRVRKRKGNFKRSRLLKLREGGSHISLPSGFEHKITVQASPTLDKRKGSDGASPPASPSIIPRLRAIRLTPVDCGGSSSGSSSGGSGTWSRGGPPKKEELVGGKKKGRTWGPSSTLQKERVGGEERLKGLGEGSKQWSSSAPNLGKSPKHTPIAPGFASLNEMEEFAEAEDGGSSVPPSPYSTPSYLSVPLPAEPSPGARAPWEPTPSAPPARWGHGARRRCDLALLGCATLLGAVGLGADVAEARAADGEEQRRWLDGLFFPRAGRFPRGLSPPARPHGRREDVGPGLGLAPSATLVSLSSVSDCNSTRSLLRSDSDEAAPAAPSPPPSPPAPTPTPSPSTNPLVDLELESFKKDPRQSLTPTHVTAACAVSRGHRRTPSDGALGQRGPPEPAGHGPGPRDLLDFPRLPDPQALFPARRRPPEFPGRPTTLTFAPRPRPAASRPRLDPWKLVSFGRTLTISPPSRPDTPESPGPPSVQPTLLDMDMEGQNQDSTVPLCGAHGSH

[7] = target: MAP kinase-activated protein kinase 5 (Homo sapiens) (UniProt Q8IW41); details: Compound concentration 1000.0 nM
Sequence of MAP kinase-activated protein kinase 5 (Homo sapiens) (Q8IW41 whole entry): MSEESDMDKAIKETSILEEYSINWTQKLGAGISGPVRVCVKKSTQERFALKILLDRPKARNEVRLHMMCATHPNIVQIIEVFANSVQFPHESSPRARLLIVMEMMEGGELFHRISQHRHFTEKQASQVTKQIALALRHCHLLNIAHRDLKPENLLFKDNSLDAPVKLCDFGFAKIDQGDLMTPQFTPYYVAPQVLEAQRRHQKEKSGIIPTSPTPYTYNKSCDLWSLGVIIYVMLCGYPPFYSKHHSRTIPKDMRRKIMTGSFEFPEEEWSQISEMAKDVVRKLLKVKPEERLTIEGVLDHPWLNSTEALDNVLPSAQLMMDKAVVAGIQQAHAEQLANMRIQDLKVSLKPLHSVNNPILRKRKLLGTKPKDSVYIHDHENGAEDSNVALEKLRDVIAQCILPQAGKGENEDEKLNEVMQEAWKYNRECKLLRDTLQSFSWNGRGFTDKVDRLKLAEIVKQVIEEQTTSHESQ

[8] = test system: Tyrosine-protein kinase ABL1 (Homo sapiens), P00519 [F317I]; details: Compound concentration 1000.0 nM
Sequence of Tyrosine-protein kinase ABL1 (Homo sapiens), P00519 [F317I] (P00519 whole entry F317I): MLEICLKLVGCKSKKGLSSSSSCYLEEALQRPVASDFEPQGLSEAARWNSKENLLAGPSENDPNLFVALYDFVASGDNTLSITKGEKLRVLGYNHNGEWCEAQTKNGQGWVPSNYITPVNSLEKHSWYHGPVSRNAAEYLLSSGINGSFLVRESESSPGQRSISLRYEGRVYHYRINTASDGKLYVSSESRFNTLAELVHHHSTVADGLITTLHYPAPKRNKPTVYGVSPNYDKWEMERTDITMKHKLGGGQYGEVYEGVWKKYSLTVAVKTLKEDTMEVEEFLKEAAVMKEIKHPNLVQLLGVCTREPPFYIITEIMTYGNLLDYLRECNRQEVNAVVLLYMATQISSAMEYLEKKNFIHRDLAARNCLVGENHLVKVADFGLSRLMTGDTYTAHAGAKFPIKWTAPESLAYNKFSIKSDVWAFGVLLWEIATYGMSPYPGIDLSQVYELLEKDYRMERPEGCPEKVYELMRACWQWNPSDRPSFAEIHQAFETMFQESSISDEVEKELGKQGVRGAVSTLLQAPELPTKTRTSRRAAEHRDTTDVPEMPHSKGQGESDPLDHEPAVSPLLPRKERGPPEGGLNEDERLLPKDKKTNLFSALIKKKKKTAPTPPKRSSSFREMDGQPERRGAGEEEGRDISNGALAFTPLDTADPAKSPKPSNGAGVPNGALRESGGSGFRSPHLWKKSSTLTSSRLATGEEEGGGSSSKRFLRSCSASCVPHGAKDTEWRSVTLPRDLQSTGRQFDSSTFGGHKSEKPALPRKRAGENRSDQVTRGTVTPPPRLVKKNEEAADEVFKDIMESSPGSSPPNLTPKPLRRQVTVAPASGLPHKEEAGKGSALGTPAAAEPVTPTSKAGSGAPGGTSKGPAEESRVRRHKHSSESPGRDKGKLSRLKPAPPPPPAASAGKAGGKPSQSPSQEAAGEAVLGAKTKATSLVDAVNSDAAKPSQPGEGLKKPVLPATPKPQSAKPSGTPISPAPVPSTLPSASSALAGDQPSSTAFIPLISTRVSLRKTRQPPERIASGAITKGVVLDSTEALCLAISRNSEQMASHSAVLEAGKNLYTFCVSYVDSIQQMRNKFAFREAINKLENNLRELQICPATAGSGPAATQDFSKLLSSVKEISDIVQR

[9] = target: Vascular endothelial growth factor receptor 1 (Homo sapiens) (UniProt P17948); details: Compound concentration 1000.0 nM
[10] = target: Mitogen-activated protein kinase 4 (Homo sapiens) (UniProt P31152); details: Compound concentration 1000.0 nM
[11] = target: Ribosomal protein S6 kinase alpha-1 (Homo sapiens) (UniProt Q15418); details: Compound concentration 1000.0 nM
Sequence of Ribosomal protein S6 kinase alpha-1 (Homo sapiens) (Q15418 whole entry): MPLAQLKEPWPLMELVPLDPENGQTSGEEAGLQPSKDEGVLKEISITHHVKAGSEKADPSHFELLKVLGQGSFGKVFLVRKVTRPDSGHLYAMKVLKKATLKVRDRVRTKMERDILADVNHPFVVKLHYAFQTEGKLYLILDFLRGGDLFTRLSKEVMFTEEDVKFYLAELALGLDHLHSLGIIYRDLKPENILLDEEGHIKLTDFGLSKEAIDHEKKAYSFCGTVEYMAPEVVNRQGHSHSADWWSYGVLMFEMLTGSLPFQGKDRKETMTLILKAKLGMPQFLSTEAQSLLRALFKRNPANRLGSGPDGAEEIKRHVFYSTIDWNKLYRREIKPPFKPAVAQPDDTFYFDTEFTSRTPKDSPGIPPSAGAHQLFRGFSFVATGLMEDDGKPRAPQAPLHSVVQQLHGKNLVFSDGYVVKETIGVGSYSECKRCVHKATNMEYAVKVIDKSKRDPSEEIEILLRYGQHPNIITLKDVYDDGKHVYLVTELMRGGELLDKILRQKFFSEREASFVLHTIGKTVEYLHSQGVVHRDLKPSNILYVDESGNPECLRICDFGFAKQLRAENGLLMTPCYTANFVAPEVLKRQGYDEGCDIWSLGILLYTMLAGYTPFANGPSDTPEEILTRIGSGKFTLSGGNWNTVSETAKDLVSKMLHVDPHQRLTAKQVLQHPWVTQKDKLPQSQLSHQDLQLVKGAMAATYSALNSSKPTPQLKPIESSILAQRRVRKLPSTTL

[12] = target: Mast/stem cell growth factor receptor Kit (Homo sapiens) (UniProt P10721); details: Compound concentration 1000.0 nM
[13] = target: Receptor tyrosine-protein kinase erbB-4 (Homo sapiens) (UniProt Q15303); details: Compound concentration 1000.0 nM
[14] = target: T2, Muscarinic acetylcholine receptor M5 (Homo sapiens) (UniProt P08912); experiment: M5 (h) Ligand binding assay; details: Compound concentration 10.0 uM
T2 sequence (whole entry): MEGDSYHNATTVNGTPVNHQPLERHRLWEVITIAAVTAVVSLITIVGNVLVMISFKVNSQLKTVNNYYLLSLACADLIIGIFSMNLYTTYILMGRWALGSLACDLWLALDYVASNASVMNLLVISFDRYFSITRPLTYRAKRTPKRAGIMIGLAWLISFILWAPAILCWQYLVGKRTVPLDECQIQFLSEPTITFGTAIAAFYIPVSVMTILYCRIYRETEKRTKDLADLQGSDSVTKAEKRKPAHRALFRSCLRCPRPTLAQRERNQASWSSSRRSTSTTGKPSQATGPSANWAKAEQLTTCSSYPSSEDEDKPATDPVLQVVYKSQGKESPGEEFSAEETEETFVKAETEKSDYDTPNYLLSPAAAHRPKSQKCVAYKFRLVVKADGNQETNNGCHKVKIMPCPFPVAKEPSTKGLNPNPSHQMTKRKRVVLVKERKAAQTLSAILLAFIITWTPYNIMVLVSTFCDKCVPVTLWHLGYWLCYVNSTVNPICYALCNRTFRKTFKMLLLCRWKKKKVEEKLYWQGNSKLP

[15] = target: Beta-1 adrenergic receptor (Homo sapiens) (UniProt P08588); experiment: beta1 (h) Ligand binding assay; details: Compound concentration 10.0 uM
Sequence of Beta-1 adrenergic receptor (Homo sapiens) (P08588 whole entry, looked up): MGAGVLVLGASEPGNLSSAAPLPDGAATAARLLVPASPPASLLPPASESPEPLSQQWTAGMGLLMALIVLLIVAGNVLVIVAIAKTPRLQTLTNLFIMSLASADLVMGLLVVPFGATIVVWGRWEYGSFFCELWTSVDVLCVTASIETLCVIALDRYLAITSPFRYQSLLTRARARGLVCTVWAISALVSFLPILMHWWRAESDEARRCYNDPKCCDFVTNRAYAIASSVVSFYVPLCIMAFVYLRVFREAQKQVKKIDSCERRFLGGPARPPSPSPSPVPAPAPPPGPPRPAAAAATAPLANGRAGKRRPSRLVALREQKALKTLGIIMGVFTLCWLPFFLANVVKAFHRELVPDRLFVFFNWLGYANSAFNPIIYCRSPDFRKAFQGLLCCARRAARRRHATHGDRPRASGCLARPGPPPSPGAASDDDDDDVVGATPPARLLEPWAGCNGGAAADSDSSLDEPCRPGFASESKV

[16] = target: Adrenergic receptor alpha-2 (Homo sapiens) (UniProt P08913+P18825+P18089); experiment: alpha2 (non-selective) Ligand binding assay; assay type: protein assay; details: Compound concentration 10.0 uM
[17] = target: Adenosine receptor A3 (Homo sapiens) (UniProt P0DMS8); experiment: A3 (h) Ligand binding assay; details: Compound concentration 10.0 uM
[18] = target: Type-1 angiotensin II receptor (Homo sapiens) (UniProt P30556); experiment: AT1 (h) Ligand binding assay; details: Compound concentration 10.0 uM
Aurora kinase B = Aurora kinase B (Homo sapiens, UniProt Q96GD4); experiment: Inhibition of AURKB at compound concentration of 10.0 uM using the ScanMax (DiscoverX)
[19] = target: Cyclin-dependent kinase 7 (Homo sapiens, UniProt P50613); experiment: Inhibition of CDK7 at compound concentration of 10.0 uM using the ScanMax (DiscoverX)
[20] = target: Adenosine receptor A2a (Homo sapiens) (UniProt P29274); experiment: A2a (h) Ligand binding assay; details: Compound concentration 10.0 uM
[21] = target: Muscarinic acetylcholine receptor M2 (Homo sapiens) (UniProt P08172); experiment: M2 (h) Ligand binding assay; details: Compound concentration 10.0 uM
[22] = target: Adenosine receptor A1 (Homo sapiens) (UniProt P30542); experiment: A1 (h) Ligand binding assay; details: Compound concentration 10.0 uM
[23] = target: T3, 5-hydroxytryptamine receptor 3A (Homo sapiens) (UniProt P46098); experiment: 5-HT3 (h) Ligand binding assay; details: Compound concentration 10.0 uM
T3 sequence (whole entry): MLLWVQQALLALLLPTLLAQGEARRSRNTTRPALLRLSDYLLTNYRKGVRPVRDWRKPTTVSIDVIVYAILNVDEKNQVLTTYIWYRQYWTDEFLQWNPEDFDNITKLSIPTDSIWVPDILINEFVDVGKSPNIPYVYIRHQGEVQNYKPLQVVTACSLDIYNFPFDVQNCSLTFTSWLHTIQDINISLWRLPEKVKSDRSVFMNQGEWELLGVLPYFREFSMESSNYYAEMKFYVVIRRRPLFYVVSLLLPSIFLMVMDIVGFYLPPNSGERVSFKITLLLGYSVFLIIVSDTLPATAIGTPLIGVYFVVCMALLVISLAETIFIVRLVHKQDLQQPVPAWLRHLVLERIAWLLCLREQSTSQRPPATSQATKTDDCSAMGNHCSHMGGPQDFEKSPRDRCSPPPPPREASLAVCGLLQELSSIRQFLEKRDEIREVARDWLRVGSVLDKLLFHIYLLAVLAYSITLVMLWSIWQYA

[24] = target: Calcium-activated potassium channel (Homo sapiens) (UniProt Q92952+Q9UGI6+Q12791+O15554+Q9H2S1+A8MYU2); experiment: K+ channel (Ca2+ - dependent) Ligand binding assay; assay type: protein assay; details: Compound concentration 10.0 uM

`Cn1cncc1[C@@](O)(COc1ccc(C#N)cc1-c1ccc(OC(F)(F)F)cc1)c1ccc(C#N)cc1` [A-108] gave a residual activity [1] of 100%, an inhibition [2] of -9.7% and a residual activity [3] of 95%. For the same molecule, the residual activity [4] was 80%, the residual activity [5] was 100% and the residual activity [6] was 98%. It also gave a residual activity [7] of 100%, a residual activity [8] of 88% and a residual activity [9] of 83%. It also gave a residual activity [10] of 90%, a residual activity [11] of 100% and a residual activity [12] of 90%. For the same molecule, the residual activity [13] was 100%.
With `Cn1cncc1[C@](O)(COc1ccc(C#N)cc1-c1ccc(OC(F)(F)F)cc1)c1ccc(C#N)cc1` [ABT-100] the residual activity [1] was 77%, the inhibition [2] was 6.8% and the inhibition [14] was 18%. The residual activity [3] was 63%, the residual activity [4] was 94% and the residual activity [5] was 87%. The residual activity [6] was 55%, the residual activity [7] was 90% and the residual activity [8] was 100%. It also gave a residual activity [9] of 98%, a residual activity [10] of 100% and an inhibition [15] of 22%. For the same molecule, the residual activity [11] was 100%, the inhibition [16] was < 10% and the inhibition [17] was < 10%. For the same molecule, the inhibition [18] was < 10%, the Kd (Aurora kinase B) was > 10 µM (not active) and the Kd [19] was > 10 µM (not active). For the same molecule, the inhibition [20] was < 10%, the residual activity [12] was 95% and the inhibition [21] was < 10%. For the same molecule, the residual activity [13] was 81%, the inhibition [22] was < 10% and the inhibition [23] was 12%. For the same molecule, the inhibition [24] was < 10%.
